Tested on: full-length JFH-1 replicon
Assay: replicon model, intracellular HCV RNA by RT-qPCR
Type: cell-based, hepatitis C virus in Huh-7 cells
Details: peptides 20 µM, controls 1 µM, 48 hours

Compound | intracellular HCV RNA levels in replicon cells
COc1ccc2c(O[C@@H]3C[C@H]4C(=O)N[C@]5(C(=O)O)C[C@H]5/C=C\CCCCC[C@H](NC(=O)OC5CCCC5)C(=O)N4C3)cc(-c3csc(NC(C)C)n3)nc2c1 [BILN2061] | efficiently reduced HCV RNA levels
C[C@@]1(O)[C@H](O)[C@@H](CO)O[C@H]1n1ccc(N)nc1=O [Peptide 2-CMC, 2’-C-methylcytidine] | efficiently reduced HCV RNA levels

Source: PMC3225806 (Chemistry & biology, 2011)
